The test system of data set [1] is PDL-1 expression on Panc-1 cells. Briefly: Western blot of PDL-1 on Panc-1 cells co-cultured with T-lymphocytes. Format: cell-based, human. Particulars: co-culture, 2.5, 5, 7.5 and 10 hrs. The method, then: Cell lines and cell culture: Panc-1 cells were cultured in DMEM medium supplemented with 10% Fetal Bovine Serum and maintained at 37° C.5% CO2. Human Peripheral Blood Pan-T Cells were cultured in serum free T cells expansion media with 10 ng/ml of rhIL-2, T-cell activator and expanded as per the manufacturer instructions. Panc-1 cells and T-Cells were grown and expanded separately in T75 flasks. For co-culture experiments with Panc-1 cell, 2.5 million T-cells per well were plated in the well using a 6 well plate. 2.5 million Panc-1 Cells were plated in the thinsert which was placed into the well of the 6 well plate in order to have the cells physically separated but share media. The cells were incubated for 24 hours at 37° C., 5% CO2. At 24 hours the media was replaced with media containing vehicle, or 10 uM BCN057 and were incubated for the following timepoints: 1 hr, 6 hr, 12 hr, 24 hrs. The Panc-1 cells were removed by gently scraping the cells from the thinsert.
Western Blot: Cells were harvested and lysed in cell lysis buffer on ice for 15 minutes and the lysate was centrifuged at 13,000 rpm at 4° C. for 10 minutes. The supernatant was transferred into a new tube for BCA protein quantification assay (Thermo Fisher Scientific) and the samples were normalized. 3× loading buffer (Cell Signaling) was added the protein sample and boiled for 5 minutes. […]

The next data set concerns Panc-1 cells. The experiment in a line: ATPLite luminescence viability assay on Panc-1 cells. Format: cell-based, human. The method, then: Viability Assay. To determine the effects of BCN 057 in comparison and combination with irinotecan, Oxaloplatin and 5Fu, the ATPLite Luminescence Assay System was used according to manufacturer's instructions. On day 1, 3,000 Panc-1 cells per well were seeded in 96-well white, opaque sterile tissue culture treated microplates and incubated for 24 hours in complete medium at 37° C., 5% CO2. On day 2, the media was exchanged with media containing various combinations of 10 uM BCN 057, 25 μM 5-Fu, 75 μM Oxaloplatin, and 50 μM Irinotecan and incubated at 37° C., 5% CO2. On day 3,4, and 5, the ATP Lite Assay was performed according to manufacturer's instructions for the 24, 48, and 72 hr timepoints. Unless otherwise stated, values were represented as a percent of the control which is the vehicle for each drug. No difference was found in viability between any control vehicle.
Statistics. The results are shown by calculating the averages (±Standard deviation) in comparison to untreated controls with the indicated (n). The Percent Viability was calculated by dividing the average of each condition by the average of the untreated control (vehicle). Statistical analysis was performed in excel.
The first example entailed studying the effect of BCN057 in pancreatic cancer cells. Panc-1 cells, a G12D KRAS mutant cell line was treated with BCN057 for 48 hours.
All data points are n=5. Control (ND) received no drug and BCN057 at 2, 5, 10, and 20 μM final concentration. The Percent viability was calculated by dividing the average value for each condition by the average value of the control cells (V) at each time point.
Further, these doses span the concentrations found in plasma during efficacy studies in rodents. Subsequently, microscope images appeared to show cell blebbing and fragmentation shortly after application of BCN057 indicating possible apoptosis. […] Blebbing and cell fragmentation was noted within 20 min of incubation with drug (as shown with the arrows). Cell fragmentation was seen between 20-30 minutes after exposure to the drug.
The anti-apoptotic phenotype of KRAS is associated with significant resistance to chemotherapy. Thus, to examine whether BCN057 enhances cytotoxic chemotherapeutic agents such as 5-Fluorouracil, also known as 5FU, Panc1 cells were pre-treated with 5FU as reported and incubated with BCN057. […] The effect followed a dose dependent response for BCN057 and was consistent over 24, 48 and 72 hrs after BN057 treatment (24 and 48 hrs not shown).
All data points are n=5. Control (ND) received no drugs. Study groups include 5FU (50 μM), 057 (BCN057 at 2, 5, 10, and 20 μM or 5FU+BCN057 (BCN057 at 2, 5, 10, and 20 μM in combination with 5FU at 50 μM). The Percent viability was calculated by dividing the average value for each condition by the average value of the control cells (V) with standard deviation at each time point
Combined chemotherapy and cytotoxicity: Other cytotoxic drugs commonly used in the treatment of pancreatic or colorectal cancer were then examined in similar fashion such as those within FOLFIRINOX such as 5FU, Irinotecan and Oxaliplatin in combination equivalent doses of BCN057 over 24, 48 and 72 hours.
FIG. 6 is a histogram showing the cytotoxicity of Oxaliplatin and Irinotecan, individually or in combination with 5FU and BCN057 on Panc-1 cells. Cells were incubated with Oxaliplatin, Irinotecan and 5FU with concentrations at 10 μM each and BCN057 (057) also at 10 μM with n=4 for all assays.

Data set [2] has as its target T1, GSK3b in non-transformed cell types such as HEK298 (Homo sapiens, UniProt P49841).
T1 construct: endogenous in cells; host or cells: HEK298 (so in the source)
Briefly: GSK3b inhibition in non-transformed cells. It counts as cell-based. The method, then: To investigate the role BCN057 may have in the restoration of apoptosis in this cell line, the GSK3b-c-Jun relationship was assessed as it has been directly linked to apoptosis. Others have reported a link with GSK3b and c-Jun and apoptosis along with the fact that […] is over expressed in the oncogenic KRAS phenotype.

The values below come from patent US20240376098A1, “METHODS OF TREATMENT USING BCN057, BCN077 AND ANALOGS” (BCN Biosciences L.L.C., priority 2021, published 2024).

T1 sequence (P49841 whole entry): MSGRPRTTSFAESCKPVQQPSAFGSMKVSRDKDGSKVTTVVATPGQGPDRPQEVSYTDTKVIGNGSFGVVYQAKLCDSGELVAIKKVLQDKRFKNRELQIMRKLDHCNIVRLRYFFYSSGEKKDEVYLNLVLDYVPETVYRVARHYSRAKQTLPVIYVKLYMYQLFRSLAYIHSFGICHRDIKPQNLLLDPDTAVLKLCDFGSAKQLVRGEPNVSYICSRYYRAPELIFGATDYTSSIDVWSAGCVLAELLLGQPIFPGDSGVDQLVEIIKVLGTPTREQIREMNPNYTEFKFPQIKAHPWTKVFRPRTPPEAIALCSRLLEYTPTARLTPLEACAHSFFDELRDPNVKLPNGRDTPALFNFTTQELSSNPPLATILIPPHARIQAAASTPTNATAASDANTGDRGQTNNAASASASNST

On to `COc1ccc2cc(-c3nc4ccc(C)cn4c3NCc3ccco3)c(=O)[nH]c2c1` [BCN057, 3-[(Furan-2-ylmethyl)-amino]-2-(7-methoxy-2-oxo-1,2-dihydro-quinolin-3-yl)-6-methyl-imidazo[1,2-a]pyridin-1-ium], for which the “PDL-1 expression on Panc-1 cells” value in data set [1] was “not appreciably changed”. The Panc1 cells viability entry in the data set on Panc-1 cells (48 hours, increasing doses of BCN057) is “significant decrease in Panc1 cells viability”. Moreover, in the data set with Panc-1 cells (Homo sapiens, Panc-1, 72 hours post application, 2, 5, 10, 20 μM, Quest Graph IC50 Calculator), the IC50 is 1330 nM. In addition, the “Cytotoxicity of combination of 5FU and BCN057” value in the data set on Panc-1 cells (Panc1, 5FU 50 μM plus BCN057 2-20 μM, 24, 48 and 72 hrs) is “greater cytotoxicity than 5FU alone”. Also, the “Tumor viability on addition of BCN057 to Oxaliplatin, Irinotecan and 5FU” value in the data set with Panc-1 cells (Panc-1, 10 μM each, over 72 hrs) is “general trend of decreasing tumor viability”. Moreover, the “cytotoxicity toward the cells in the dose response curve” value in the data set with Panc-1 cells (Panc-1, 2-20 μM) is listed as “potent cytotoxicity toward the cells at all concentrations”. Moreover, the “Sensitivity to cytotoxic effect of 5FU, Irinotecan and Oxaliplatin in combination with BCN057” value in the data set with Panc-1 cells (Panc-1, 24, 48 and 72 hours, all time points except Irinotecan and oxaliplatin at 72 hours) is “statistically significant sensitivity”. The GSK3b inhibition result in data set [2] was “inhibition was noted”.
